{"source": "paper PMC6270099", "about": "“Synthesis, Biological Evaluation, and Pharmacokinetic Study of Novel Liguzinediol Prodrugs” (Molecules, 2013)", "key": {"[1]": {"tested_on": "isolated Langendorff-perfused rat hearts", "experiment": "Ex vivo Langendorff-perfused rat heart, cardiac performance", "details": "for ∆% +dP/dtmax / ∆% LVDP / ∆% −dP/dtmax: increase vs. control; for LVDP: isolated rat heart, mean ± SD, n = 6", "experimental": "The cardiac contractility and safety of prodrugs 3–5 were evaluated on the myocardium in normal isolated rat hearts with LZDO as a positive control. Prodrugs 3–5 exerted positive inotropic effects in a dose-dependent manner. The increased rate in left ventricular developed pressure (LVDP, accepted as contractile force), +dP/dtmax (used as an index of contractility), the maximum rate of pressure decrease of the left ventricle ([…], used as an index of diastolic function) and the heart rate (HR, used as an index of heart muscle oxygen consumption) of these compounds vs. control are listed in Table 1.\nAll commercial reagents and solvents were used without further purification unless otherwise specified. Melting points were determined using a model Buchi B-450 apparatus. ESI-MS were recorded on a TOF mass spectrometer (Applies-Biosystem Mariner). IR spectra were acquired by using a THERMO IR spectrometer Model Nicolet-100. ^1H- and ^13C-NMR spectra (500/125 MHz) were recorded on a Bruker Advance 500 spectrophotometer. Mass spectra were recorded on a ZAB-HS mass spectrometer and are reported as m/z values. HPLC analysis was conducted on a Waters 2695 HPLC instrument equipped with a UV detector (model 2489). LZDO and prodrugs 3–5 were analysed by HPLC, and their purity was confirmed to be greater than 98.0%. In vitro metabolic stability analysis was conducted by a HPLC method, using stock standard solutions of LZDO and prodrugs that were prepared in water at a concentration of 30 mM. The positive inotropic effects on the myocardium of LZDO and prodrugs 3–5 in vitro were evaluated on Langendorff-perfused hearts isolated from normal Sprague-Dawley rats. A HPLC method was applied to measure the rat plasma concentrations of LZDO and prodrug 3 after intragastric administration of prodrug 3 in the rats.\nSprague-Dawley adult male rats weighing 260–320 g were anaesthetised by intraperitoneal administration of 20% urethane (1.2 g/kg). The hearts were quickly removed and placed into an ice-cold modified buffer until contractions ceased. The heart was cleaned of surrounding tissues, mounted on the aortic cannula of the Langendorff perfusion system apparatus, and perfused with oxygenated buffer (mM): NaCl 117, KCl 5.7, CaCl2 1.8, MgCl2 1.7, NaHCO3 4.4, NaH2PO4 1.5, HEPES 20 and glucose 11. The buffer was equilibrated with 95% O2 and 5% CO2 and adjusted to pH 7.4 with NaOH before it entered the heart. An epicardial electrogram was registered using two stainless steel electrodes, one attached to the apex of the heart and the other to the aortic cannula. To obtain an isovolumetrically beating preparation, a latex balloon filled with water and connected by a catheter to a transducer was inserted through the left atrium into the left ventricle and inflated to provide an end-diastolic pressure between 8 and 12 mm Hg. Before each experimental protocol was initiated, the isolated hearts were set at a mean arterial pressure of 60–80 mm Hg and allowed to stabilise at 37 °C for 40–60 min. The isolated rat hearts were then perfused in sequence with 1, 10, and 100 μM of LZDO and prodrugs 3–5 in each group. A RM6240B/C four channel physiological recording instrument (Chengdu Instrument Factory, Chengdu, China) was used for continuous recording of LVSP, LVEDP, HR (derived from electrogram), +dP/dtmax and −dP/dtmax throughout the experiments. The criteria for established stability were LVDP > 50 mmHg, +dP/dtmax > 1,600 mmHg·s^−1, heart rate > 180 beats·min^−1 and normal sinus rhythm. The hearts were not studied if they had weak contractility (+dP/dtmax < 1,600 mmHg·s^−1) and severe arrhythmia. Diastolic balloon pressure was maintained at 8 mmHg. LVDP was calculated as the difference between the systolic and diastolic pressures. The results are expressed as the mean value of hemodynamic variables (n = 6). Statistical analysis was performed using SPSS for Windows (version 13.0). Data were analyzed by One-way ANOVA. […]"}, "[2]": {"experiment": "Metabolic stability and formation of parent compound in rat liver microsomes", "assay_type": "in vitro ADME", "details": "NADPH, 37 °C, up to 3 h", "experimental": "Analysis was performed by using a Waters Alliance HPLC system (2695 pump, and 2489 PDA detector) with the following chromatographic parameters: wavelength, 278 nm; injection volume, 20 μL; run time, 20 min. The chromatographic separation was performed on an Phecda C18 (4.6 mm × 250 mm, 5 μm) column with a gradient elution of methanol and deionized water. Flow rate was 1.0 mL/min at 30 °C.\nRat liver microsomes were prepared in house by a previously published method and used immediately in the experiments. Protein concentrations were determined by a Lowry protein assay.\nRat liver microsomes (2.0 mg/mL protein concentration), NADPH (1.0 mM solution, Sigma, Shanghai, China), Tris-HCl buffer (50 mM, pH 7.4, Sigma, Shanghai, China), test compound in aqueous solution (30 mM, 20 μL).\nTris-HCl buffer (780 μL), 1.0 mM NADPH solution (100 μL), and 100 μL of rat liver microsomes were mixed and vortexed at 37 °C for 5 min. To this mixture, 30 mM drug in aqueous solution (20 μL) was injected and vortexed well. Sample (100 μL) was immediately taken out (0 min) and transferred to the centrifuge tube containing ice cold dissolvent (ethanol-ethyl acetate = 1:4 v/v, 1 mL). […] The percentage of prodrug remaining was calculated according to the following equation: % remaining = peak area at respective time (min)/peak area at 0 min × 100% (2)"}}, "note": "Marks after values point to notes of the source that are not given here.", "data": [{"smiles": "Cc1nc(CO)c(C)nc1CO", "note": "[1a, Liguzinediol]", "values": [{"measurement": "+dP/dtmax", "setting": "[1]; 1 μM", "result": "1,836 ± 121 mmHg/s"}, {"measurement": "HR", "setting": "[1]; 1 μM", "result": "186 ± 29", "unit": "beat·min^−1"}, {"measurement": "−dP/dtmax", "setting": "[1]; 1 μM", "result": "−1,175 ± 125 mmHg/s"}, {"measurement": "∆% +dP/dtmax", "setting": "[1]; 1 μM", "result": "9.4 ± 8.1", "unit": "%"}, {"measurement": "∆% LVDP", "setting": "[1]; 1 μM", "result": "19.4 ± 11.0", "unit": "%"}, {"measurement": "∆% −dP/dtmax", "setting": "[1]; 1 μM", "result": "11.1 ± 10.0", "unit": "%"}, {"measurement": "LVDP", "setting": "[1]; 1 μM", "result": "60 ± 5 ^b mmHg"}, {"measurement": "+dP/dtmax", "setting": "[1]; 10 μM", "result": "2,125 ± 242 ^bc mmHg/s"}, {"measurement": "HR", "setting": "[1]; 10 μM", "result": "209 ± 21", "unit": "beat·min^−1"}, {"measurement": "−dP/dtmax", "setting": "[1]; 10 μM", "result": "−1,371 ± 186 ^bc mmHg/s"}, {"measurement": "∆% +dP/dtmax", "setting": "[1]; 10 μM", "result": "26.5 ± 13.4", "unit": "%"}, {"measurement": "∆% LVDP", "setting": "[1]; 10 μM", "result": "45.6 ± 9.0", "unit": "%"}, {"measurement": "∆% −dP/dtmax", "setting": "[1]; 10 μM", "result": "30.3 ± 0.3", "unit": "%"}, {"measurement": "LVDP", "setting": "[1]; 10 μM", "result": "73 ± 4 ^bd mmHg"}, {"measurement": "+dP/dtmax", "setting": "[1]; 100 μM", "result": "2,702 ± 287 ^bdf mmHg/s"}, {"measurement": "HR", "setting": "[1]; 100 μM", "result": "193 ± 15", "unit": "beat·min^−1"}, {"measurement": "−dP/dtmax", "setting": "[1]; 100 μM", "result": "−1,911 ± 200 ^bdf mmHg/s"}, {"measurement": "∆% +dP/dtmax", "setting": "[1]; 100 μM", "result": "60.9 ± 17.3", "unit": "%"}, {"measurement": "∆% LVDP", "setting": "[1]; 100 μM", "result": "76.3 ± 12.3", "unit": "%"}, {"measurement": "∆% −dP/dtmax", "setting": "[1]; 100 μM", "result": "82.0 ± 27.9", "unit": "%"}, {"measurement": "LVDP", "setting": "[1]; 100 μM", "result": "88 ± 3 ^bdf mmHg"}, {"measurement": "metabolic stability", "setting": "[2]", "result": "fairly stable"}]}]}
